Experimental data taken from article PMC6190683 (Bioorganic & medicinal chemistry letters, 2017).

These compounds were tested against Mtb NadE (Mycobacterium tuberculosis, UniProt P9WJJ3) (assay: ammonia-dependent Mtb NadE inhibition assay).
Chain of Mtb NadE (P9WJJ3 whole entry): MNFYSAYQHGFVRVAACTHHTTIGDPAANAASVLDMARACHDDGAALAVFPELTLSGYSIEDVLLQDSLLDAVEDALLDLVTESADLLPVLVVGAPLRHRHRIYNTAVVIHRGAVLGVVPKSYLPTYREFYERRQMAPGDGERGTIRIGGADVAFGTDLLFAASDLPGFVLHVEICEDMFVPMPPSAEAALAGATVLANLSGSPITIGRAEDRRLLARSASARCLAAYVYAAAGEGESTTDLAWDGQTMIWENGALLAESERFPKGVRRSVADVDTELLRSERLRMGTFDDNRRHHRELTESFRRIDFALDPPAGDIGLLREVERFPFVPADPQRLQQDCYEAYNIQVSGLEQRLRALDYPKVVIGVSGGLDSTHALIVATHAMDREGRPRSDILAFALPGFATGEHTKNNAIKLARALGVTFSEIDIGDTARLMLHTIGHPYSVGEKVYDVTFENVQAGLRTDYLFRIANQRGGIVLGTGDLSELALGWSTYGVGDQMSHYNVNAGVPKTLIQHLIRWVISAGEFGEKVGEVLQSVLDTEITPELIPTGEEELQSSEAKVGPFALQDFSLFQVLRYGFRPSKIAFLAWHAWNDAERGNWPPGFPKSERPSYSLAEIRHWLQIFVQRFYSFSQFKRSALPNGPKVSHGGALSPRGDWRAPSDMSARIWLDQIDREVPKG
Type: biochemical
`COc1ccc(NS(=O)(=O)c2ccc(NC(=O)Nc3ccc([N+](=O)[O-])cc3)cc2)cc1` [Compound 4d] showed an IC50 of over 200 µM. `O=C(Nc1ccc([N+](=O)[O-])cc1)Nc1ccc(S(=O)(=O)Nc2ccc([N+](=O)[O-])cc2)cc1` [Compound 4f] was tested, and the IC50 was over 200 µM. `O=C(Nc1ccc([N+](=O)[O-])cc1)Nc1ccc(S(=O)(=O)Nc2cccc(C(F)(F)F)c2)cc1` [Compound 4h] showed an IC50 of over 200 µM. For `O=C(Nc1ccc([N+](=O)[O-])cc1)Nc1ccc(S(=O)(=O)Nc2ccccc2)cc1` [Compound 4l], the IC50 was over 200 µM.
